Data set [1] is described as follows: Assay (IV) determination of solubility. In kind it is physicochemical. The method, then:
Assay (IV)—Determination of Solubility
The mimylin peptide was dissolved in water at ˜500 nmol/ml and mixed 1:1 with a series of buffers (100 mM glycylglycine pH 3.0, 100 mM glycylglycine pH 4.0, 100 mM glycylglycine pH 5.0, 100 mM bistrispropane pH 6.0, 100 mM bistrispropane pH 6.5, 100 mM bistrispropane pH 7.0, 100 mM bistrispropane pH 7.5, 100 mM bistrispropane pH 8.0).

The target of another data set is T1, rat calcitonin receptor (Rattus norvegicus, UniProt P32214).
T1 construct: expressed in transfected cells; host or cells: BHK tk'ts 13 (transient, FuGENE 6)
T1 sequence (P32214 25-479 isoform P32214-2 limits assumed): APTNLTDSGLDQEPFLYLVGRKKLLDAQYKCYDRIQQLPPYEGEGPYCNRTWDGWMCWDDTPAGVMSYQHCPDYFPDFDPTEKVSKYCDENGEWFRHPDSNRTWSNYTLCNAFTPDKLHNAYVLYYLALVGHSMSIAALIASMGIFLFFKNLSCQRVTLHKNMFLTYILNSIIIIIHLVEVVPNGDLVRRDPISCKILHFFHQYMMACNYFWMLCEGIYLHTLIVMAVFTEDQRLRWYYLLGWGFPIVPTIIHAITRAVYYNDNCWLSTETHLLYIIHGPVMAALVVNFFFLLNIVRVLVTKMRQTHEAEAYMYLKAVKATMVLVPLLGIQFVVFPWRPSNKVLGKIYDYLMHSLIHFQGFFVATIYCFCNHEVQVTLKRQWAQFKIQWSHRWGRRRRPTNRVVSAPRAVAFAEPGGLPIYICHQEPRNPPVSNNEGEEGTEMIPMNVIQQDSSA
Put plainly: Assay (VIII) binding to the rat calcitonin receptor. Particulars: membranes; read-out: rCT-R binding IC50. In short, it runs like this: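 Competition binding on membranes from BHK tk'ts 13 cells transiently transfected with rat calcitonin receptor, otherwise run as the human receptor assay. Plates washed in cold HBSS, lysed in 0.1 M NaOH/1% SDS and scintillation-counted. IC50 from one-site competition fit as affinity measure.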

Data set [2] has as its target T2, human amylin receptor (human calcitonin receptor + human RAMP3), BHK tk'ts 13 cells (Homo sapiens, UniProt O60896+P30988).
T2 construct: expressed in transfected cells; host or cells: BHK tk'ts 13
Description: Assay (Va) binding to the human amylin receptor (whole cell). The following applies: read-out: hAmylin-R binding IC50. The method, then:
The day before the assay the cells were Seeded into Poly-D-Lysin coated 384W Opaque White, BD BioCoat plates (10000 cells/well) and Incubated overnight at 37° C., 5% CO2, 95% humidity.

Data set [3] deals with T3, rat amylin receptor (rat calcitonin receptor + rat RAMP 3) (Rattus norvegicus, UniProt P32214+Q9JJ73).
T3 construct: expressed in transfected cells; host or cells: BHK tk'ts 13 (transient, FuGENE 6)
T3 sequence (P32214 25-479 isoform P32214-2 limits assumed): T1 sequence (P32214 25-479 isoform P32214-2 limits assumed)
T3 sequence (Q9JJ73 23-147 partner): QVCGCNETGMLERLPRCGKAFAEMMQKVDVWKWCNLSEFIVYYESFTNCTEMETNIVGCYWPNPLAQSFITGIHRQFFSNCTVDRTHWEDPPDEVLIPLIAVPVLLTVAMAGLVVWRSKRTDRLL
Description: Assay (VI) binding to the rat amylin receptor (membrane). The following applies: membranes; read-out: rAmylin-R binding IC50. The protocol:
The assay was performed as described above (Assay (V)—Determination of binding to the human amylin receptor) with the exception that we used membranes prepared from BHK tk'ts 13 cells that were transiently transfected with the rat calcitonin receptor rat RAMP 3 at an equimolar ratio […]. The BHK tk'ts 13 cells were transiently transfected with rat calcitonin receptor using FuGENE® 6 (Roche), according to the manufacturer's recommendations. Cells were grown in DMEM with 10% FBS and 1% Pen/Strep. Approximately 48 hours after transfection, the cells were harvested and membranes were prepared.

SMILES strings stand for the structures. Numbered stars: 1 amine (or outer) side, 2 acyl side, 3 side chain; on linkers, the order of the positions; unused ones are H or OH. Side chains are listed from the residue outwards. Peptide text beside a SMILES is read from it. * marks the point of attachment. C20 diacid = O=C(O)CCCCCCCCCCCCCCCCCCC(=O)*; C18 diacid = O=C(O)CCCCCCCCCCCCCCCCC(=O)*; γGlu = O=C(O)[C@H](CCC(=O)[*:2])N[*:1]

T2 sequence (O60896 24-148): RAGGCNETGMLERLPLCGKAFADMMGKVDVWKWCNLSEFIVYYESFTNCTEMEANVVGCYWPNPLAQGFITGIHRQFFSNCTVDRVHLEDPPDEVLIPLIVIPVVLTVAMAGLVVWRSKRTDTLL
T2 sequence (P30988 25-474): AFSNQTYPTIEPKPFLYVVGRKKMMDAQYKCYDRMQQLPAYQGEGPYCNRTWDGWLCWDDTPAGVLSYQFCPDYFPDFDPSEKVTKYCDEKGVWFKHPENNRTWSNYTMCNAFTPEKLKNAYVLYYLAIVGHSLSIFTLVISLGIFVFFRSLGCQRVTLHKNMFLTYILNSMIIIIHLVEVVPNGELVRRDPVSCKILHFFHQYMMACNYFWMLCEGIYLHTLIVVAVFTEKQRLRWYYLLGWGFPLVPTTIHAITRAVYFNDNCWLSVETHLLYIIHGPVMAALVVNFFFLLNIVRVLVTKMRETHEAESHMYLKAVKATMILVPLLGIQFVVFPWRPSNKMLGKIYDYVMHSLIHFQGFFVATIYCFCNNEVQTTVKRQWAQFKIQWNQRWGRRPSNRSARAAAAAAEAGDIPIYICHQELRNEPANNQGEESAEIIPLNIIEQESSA

For `CC(C)C[C@H](NC(=O)[C@H](C)NC(=O)[C@H](C)NC(=O)[C@@H](NC(=O)[C@H](CO)NC(=O)[C@H](CC(C)C)NC(=O)[C@H](CCC(=O)O)NC(=O)[C@H](CO)NC(=O)[C@H](C)NC(=O)[C@H](CCC(=O)O)NC(=O)CCCCCCCCCCCCCCCCC(=O)O)[C@@H](C)O)C(=O)NCC(=O)N[C@@H](CCCNC(=N)N)C(=O)N[C@@H](CC(C)C)C(=O)N[C@@H](CO)C(=O)N[C@@H](C)C(=O)N[C@@H](CCC(=O)O)C(=O)N[C@@H](CC(C)C)C(=O)N[C@@H](Cc1cnc[nH]1)C(=O)N[C@@H](CCC(=O)O)C(=O)N[C@@H](CC(C)C)C(=O)N[C@@H](C)C(=O)N[C@H](C(=O)N[C@@H](CC(C)C)C(=O)N1CCC[C@H]1C(=O)N[C@@H](CCCNC(=N)N)C(=O)N[C@H](C(=O)N[C@@H](CCC(=O)O)C(=O)N[C@H](C(=O)NCC(=O)N1CCC[C@H]1C(=O)N[C@@H](CCC(=O)O)C(=O)N[C@@H](CO)C(=O)N1CCC[C@H]1C(N)=O)[C@@H](C)O)[C@@H](C)O)[C@@H](C)O` [Ex. #2, [N-terminal(C18 diacid)]mimylin] ({C18 diacid}-EASELSTAALGRLSAELHELATLPRTETGPESP-NH2), the Solubility result in data set [1] (pH 3.0), in data set [1] (pH 4.0), in data set [1] (pH 5.0), in data set [1] (pH 6.0), in data set [1] (pH 6.5) and in data set [1] (pH 7.0) was “≧200 μM” each time. Also, the Solubility entry in data set [1] (pH 7.5) and in data set [1] (pH 8.0) was “≧200 μM” in each case.

Take `CC(C)C[C@H](NC(=O)[C@H](C)NC(=O)[C@H](C)NC(=O)[C@@H](NC(=O)[C@H](CO)NC(=O)[C@H](CC(C)C)NC(=O)[C@H](CCC(=O)O)NC(=O)[C@H](CO)NC(=O)[C@H](C)NC(=O)[C@H](C)NC(=O)CC[C@H](NC(=O)CCCCCCCCCCCCCCCCCCC(=O)O)C(=O)O)[C@@H](C)O)C(=O)NCC(=O)N[C@@H](CCCNC(=N)N)C(=O)N[C@@H](CC(C)C)C(=O)N[C@@H](CO)C(=O)N[C@@H](C)C(=O)N[C@@H](CCC(=O)O)C(=O)N[C@@H](CC(C)C)C(=O)N[C@@H](Cc1c[nH]cn1)C(=O)N[C@@H](CCC(=O)O)C(=O)N[C@@H](CC(C)C)C(=O)N[C@@H](C)C(=O)N[C@H](C(=O)N[C@@H](Cc1ccc(O)cc1)C(=O)N1CCC[C@H]1C(=O)N[C@@H](CCCNC(=N)N)C(=O)N[C@H](C(=O)N[C@@H](CCC(=O)O)C(=O)N[C@H](C(=O)NCC(=O)N[C@@H](CO)C(=O)NCC(=O)N[C@@H](CO)C(=O)N1CCC[C@H]1C(N)=O)[C@@H](C)O)[C@@H](C)O)[C@@H](C)O` [compound 57, [N-terminal(C20 diacid-gGlu), 1A, 23Y, 30S, 31G]mimylin] ({C20 diacid-γGlu}-AASELSTAALGRLSAELHELATYPRTETGSGSP-NH2): the solubility (in general, the concentration that dissolves in the medium under given conditions) at 18 h was at least 200 µM in data set [1] (bistrispropane buffer, pH 6.5); at least 200 µM in data set [1] (bistrispropane buffer, pH 7.5); at least 200 µM in data set [1] (bistrispropane buffer, pH 6.0); at least 200 µM in data set [1] (bistrispropane buffer, pH 7.0); at least 200 µM in data set [1] (bistrispropane buffer, pH 8.0); at least 200 µM in data set [1] (glycylglycine buffer, pH 3.0). Besides, the solubility at 18 h in data set [1] (glycylglycine buffer, pH 4.0) is at least 200 µM; in data set [1] (glycylglycine buffer, pH 5.0), at least 200 µM. For the same compound, the IC50 (commonly the concentration that gives 50% inhibition) was determined as 0.044 nM on rat calcitonin receptor, 1.23 nM in data set [2] and 0.025 nM in data set [3].

For the compound `CC(=O)N[C@@H](C)C(=O)N[C@@H](CO)C(=O)N[C@@H](CCCCNC(=O)CC[C@H](NC(=O)CCCCCCCCCCCCCCCCCCC(=O)O)C(=O)O)C(=O)N[C@@H](CC(C)C)C(=O)N[C@@H](CO)C(=O)N[C@H](C(=O)N[C@@H](C)C(=O)N[C@@H](C)C(=O)N[C@@H](CC(C)C)C(=O)NCC(=O)N[C@@H](CCCNC(=N)N)C(=O)N[C@@H](CC(C)C)C(=O)N[C@@H](CO)C(=O)N[C@@H](C)C(=O)N[C@@H](CCC(=O)O)C(=O)N[C@@H](CC(C)C)C(=O)N[C@@H](Cc1c[nH]cn1)C(=O)N[C@@H](CCC(=O)O)C(=O)N[C@@H](CC(C)C)C(=O)N[C@@H](C)C(=O)N[C@H](C(=O)N[C@@H](CC(C)C)C(=O)N1CCC[C@H]1C(=O)N[C@@H](CCCNC(=N)N)C(=O)N[C@H](C(=O)N[C@@H](CCC(=O)O)C(=O)N[C@H](C(=O)NCC(=O)N[C@@H](CO)C(=O)NCC(=O)N[C@@H](CO)C(=O)N1CCC[C@H]1C(N)=O)[C@@H](C)O)[C@@H](C)O)[C@@H](C)O)[C@@H](C)O` [compound 68, [N-terminal(acetyl), des1, 4K(C20 diacid-gGlu), 30S, 31G]mimylin] (Ac-ASK([γGlu-C20 diacid])LSTAALGRLSAELHELATLPRTETGSGSP-NH2), the solubility at 18 h was at least 200 µM in data set [1] (bistrispropane buffer, pH 6.5); at least 200 µM in data set [1] (bistrispropane buffer, pH 7.5); at least 200 µM in data set [1] (bistrispropane buffer, pH 6.0); at least 200 µM in data set [1] (bistrispropane buffer, pH 7.0); at least 200 µM in data set [1] (bistrispropane buffer, pH 8.0); at least 200 µM in data set [1] (glycylglycine buffer, pH 3.0). Further, the solubility at 18 h is at least 200 µM in data set [1] (glycylglycine buffer, pH 4.0) and at least 200 µM in data set [1] (glycylglycine buffer, pH 5.0). Also, the IC50 was found to be 0.01 nM on rat calcitonin receptor and 0.046 nM in data set [3].

As to `CC(C)C[C@H](NC(=O)[C@H](CCC(=O)O)NC(=O)[C@H](C)NC(=O)[C@@H](NC(=O)[C@H](CC(C)C)NC(=O)[C@H](CCCNC(=N)N)NC(=O)CNC(=O)[C@H](CC(C)C)NC(=O)[C@@H](NC(=O)[C@H](C)NC(=O)[C@@H](NC(=O)[C@@H](NC(=O)[C@H](CC(C)C)NC(=O)[C@H](CCC(=O)O)NC(=O)[C@H](CO)NC(=O)[C@H](C)NC(=O)CC[C@H](NC(=O)CCCCCCCCCCCCCCCCC(=O)O)C(=O)O)[C@@H](C)O)[C@@H](C)O)C(C)C)[C@@H](C)O)C(=O)N[C@@H](Cc1c[nH]cn1)C(=O)N[C@@H](CCC(=O)O)C(=O)N[C@@H](CC(C)C)C(=O)N[C@@H](CCC(=O)O)C(=O)N[C@H](C(=O)N[C@@H](CC(C)C)C(=O)N1CCC[C@H]1C(=O)N[C@@H](CCCNC(=N)N)C(=O)N[C@H](C(=O)N[C@@H](CCC(=O)O)C(=O)N[C@H](C(=O)NCC(=O)N[C@H](C(=O)NCC(=O)N[C@H](C(=O)N1CCC[C@H]1C(N)=O)[C@@H](C)O)[C@@H](C)O)[C@@H](C)O)[C@@H](C)O)[C@@H](C)O` [compound 105, [N-terminal(C18 diacid-gGlu), des1, 6T, 9V, 14T, 21E, 30T, 31G, 32T]mimylin] ({C18 diacid-γGlu}-ASELTTAVLGRLTAELHELETLPRTETGTGTP-NH2), the solubility at 18 h in data set [1] (bistrispropane buffer, pH 6.5) was at least 200 µM; in data set [1] (bistrispropane buffer, pH 7.5) it was at least 200 µM; in data set [1] (bistrispropane buffer, pH 6.0) it was at least 200 µM; in data set [1] (bistrispropane buffer, pH 7.0) it was at least 200 µM; in data set [1] (bistrispropane buffer, pH 8.0), at least 200 µM; in data set [1] (glycylglycine buffer, pH 3.0), at least 200 µM. Besides, the solubility at 18 h in data set [1] (glycylglycine buffer, pH 4.0) is at least 200 µM; in data set [1] (glycylglycine buffer, pH 5.0), at least 200 µM. In addition, the IC50 on rat calcitonin receptor is 0.072 nM; in data set [2] it was 22.9 nM; in data set [3], 0.162 nM.

The values are drawn from patent US9593149B2, “Amylin and calcitonin receptor agonist” (Novo Nordisk A/S, priority 2014, dated 2017).
